Measurements as given in the supplement of paper PMC10883282.
± gives the standard deviation of the averaged measurements.

Assays:
Assay in all cases: relative viability vs DMSO control (72 h) (fraction); higher = more viable cells
[1] = test system: KHOS-240S
How it was run: (§1)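 Plates held 72 h at 37 °C and 5% CO2 contained sarcoma cell lines seeded in 384-well format to reach 80–90% confluence, plus 2.5 µl of serially diluted compound added after 24 h. Source plate concentrations ran from 10 mM to 0.0002 mM, with 0.1% DMSO as vehicle and a 5 µM positive control. Percent growth from ATPLite readings, averaged over up to triplicate wells, gave relative viability. Values were rescaled with 1 as full and 0 as none.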

[2] = test system: RD
How it was run: as §1

[3] = test system: SW1353
How it was run: as §1

[4] = test system: SYO-1
How it was run: as §1

[5] = test system: MES-SA
How it was run: as §1

Cc1[nH]c(/C=C2\C(=O)Nc3ccccc32)c(C)c1CCC(=O)O [Orantinib]
relative viability
Settings	[1]	[2]	[3]	[4]	[5]
0.00017 µM	1.04 ± 0.025	1.05 ± 0.03	1.08 ± 0.017	1.012 ± 0.0092	1 ± 0.035
0.00051 µM	1.07 ± 0.034	1.08 ± 0.035	1.06 ± 0.038	1.01 ± 0.044	0.989 ± 0.033
0.00152 µM	1.087 ± 0.0054	1.1 ± 0.013	1.087 ± 0.006	1.02 ± 0.048	0.975 ± 0.013
0.00457 µM	1.06 ± 0.055	1.12 ± 0.015	1.08 ± 0.019	1.02 ± 0.035	0.968 ± 0.021
0.01372 µM	1.05 ± 0.029	1.11 ± 0.016	1.05 ± 0.012	1.01 ± 0.023	0.951 ± 0.042
0.04115 µM	1.065 ± 0.01	1.09 ± 0.022	1.07 ± 0.035	1.03 ± 0.038	0.948 ± 0.019
0.1235 µM	1.08 ± 0.045	1.12 ± 0.039	1.04 ± 0.019	0.997 ± 0.047	0.948 ± 0.032
0.3704 µM	1.09 ± 0.024	1.11 ± 0.014	1.026 ± 0.0026	0.979 ± 0.063	0.953 ± 0.019
1.111 µM	1.03 ± 0.021	1.11 ± 0.03	1 ± 0.014	0.973 ± 0.043	0.941 ± 0.017
3.333 µM	1.06 ± 0.028	1.07 ± 0.045	0.963 ± 0.054	0.945 ± 0.071	0.941 ± 0.023
10 µM	0.963 ± 0.012	1.06 ± 0.033	0.951 ± 0.061	0.799 ± 0.038	0.93 ± 0.016

Cc1c2oc3c(C)ccc(C(=O)N[C@@H]4C(=O)N[C@H](C(C)C)C(=O)N5CCC[C@H]5C(=O)N(C)CC(=O)N(C)[C@@H](C(C)C)C(=O)O[C@@H]4C)c3nc-2c(C(=O)N[C@@H]2C(=O)N[C@H](C(C)C)C(=O)N3CCC[C@H]3C(=O)N(C)CC(=O)N(C)[C@@H](C(C)C)C(=O)O[C@@H]2C)c(N)c1=O [Dactinomycin]
relative viability
Settings	[1]	[2]	[3]	[4]	[5]
0.00017 µM	1.04 ± 0.018	1.09 ± 0.014	0.971 ± 0.041	0.883 ± 0.041	0.9129 ± 0.0082
0.00051 µM	1.06 ± 0.054	1.12 ± 0.072	0.946 ± 0.048	0.888 ± 0.089	0.835 ± 0.056
0.00152 µM	0.864 ± 0.051	1.071 ± 0.01	0.834 ± 0.02	0.606 ± 0.12	0.354 ± 0.019
0.00457 µM	0.73 ± 0.041	0.811 ± 0.018	0.71 ± 0.022	0.327 ± 0.069	0.321 ± 0.011
0.01372 µM	0.499 ± 0.036	0.64 ± 0.01	0.62 ± 0.053	0.259 ± 0.08	0.265 ± 0.012
0.04115 µM	0.202 ± 0.0067	0.21 ± 0.035	0.272 ± 0.017	0.249 ± 0.086	0.0423 ± 0.0066
0.1235 µM	0.0803 ± 0.054	0.0929 ± 0.012	0.242 ± 0.01	0.239 ± 0.014	0.0397 ± 0.00097
0.3704 µM	0.0989 ± 0.008	0.108 ± 0.013	0.215 ± 0.021	0.29 ± 0.01	0.0566 ± 0.0039
1.111 µM	0.0816 ± 0.014	0.0875 ± 0.011	0.183 ± 0.008	0.292 ± 0.015	0.0464 ± 0.0011
3.333 µM	0.0805 ± 0.013	0.0715 ± 0.0079	0.15 ± 0.0098	0.298 ± 0.01	0.0357 ± 0.0037
10 µM	0.0884 ± 0.011	0.0653 ± 0.0081	0.1334 ± 0.00091	0.28 ± 0.023	0.0424 ± 0.006

O=S(=O)(c1cccc2c(O)nccc12)N1CCCNCC1 [Hydroxyfasudil]
relative viability
Settings	[1]	[2]	[3]	[4]	[5]
0.00017 µM	1.1 ± 0.038	1.089 ± 0.0078	1.06 ± 0.02	1 ± 0.047	0.981 ± 0.015
0.00051 µM	1.1 ± 0.065	1.14 ± 0.033	1.07 ± 0.017	0.996 ± 0.041	0.973 ± 0.031
0.00152 µM	1.1 ± 0.056	1.16 ± 0.038	1.05 ± 0.028	0.97 ± 0.03	0.93 ± 0.015
0.00457 µM	1.11 ± 0.1	1.14 ± 0.048	1.07 ± 0.025	0.993 ± 0.057	0.962 ± 0.024
0.01372 µM	1.1 ± 0.068	1.15 ± 0.047	1.01 ± 0.044	0.96 ± 0.06	0.944 ± 0.015
0.04115 µM	1.1 ± 0.053	1.16 ± 0.06	1.01 ± 0.035	0.96 ± 0.024	0.92 ± 0.057
0.1235 µM	1.11 ± 0.056	1.15 ± 0.04	1.038 ± 0.01	0.983 ± 0.033	0.96 ± 0.015
0.3704 µM	1.1 ± 0.078	1.16 ± 0.065	1.036 ± 0.0021	0.894 ± 0.059	0.942 ± 0.036
1.111 µM	1.04 ± 0.058	1.17 ± 0.054	0.96 ± 0.037	0.919 ± 0.02	0.934 ± 0.034
3.333 µM	0.998 ± 0.072	1.17 ± 0.052	0.913 ± 0.075	0.904 ± 0.049	0.879 ± 0.031
10 µM	0.906 ± 0.05	1.18 ± 0.052	0.775 ± 0.047	0.846 ± 0.073	0.819 ± 0.018

CNC(=O)c1c(C)oc2cc(Oc3ncnc4cc(OC)c(OC)cc34)ccc12 [Fruquintinib]
relative viability
Settings	[1]	[2]	[3]	[4]	[5]
0.00017 µM	1.06 ± 0.031	1.03 ± 0.052	1.051 ± 0.005	1.01 ± 0.038	0.96 ± 0.019
0.00051 µM	1.07 ± 0.034	1.09 ± 0.03	1.02 ± 0.033	1.034 ± 0.003	0.975 ± 0.029
0.00152 µM	1.08 ± 0.035	1.09 ± 0.067	1.02 ± 0.039	0.971 ± 0.036	0.943 ± 0.04
0.00457 µM	1.07 ± 0.018	1.1 ± 0.034	1.01 ± 0.031	0.963 ± 0.068	0.935 ± 0.037
0.01372 µM	1.07 ± 0.043	1.07 ± 0.057	1.02 ± 0.052	0.921 ± 0.039	0.947 ± 0.02
0.04115 µM	1.08 ± 0.022	1.08 ± 0.033	1.01 ± 0.04	0.918 ± 0.043	0.9442 ± 0.0073
0.1235 µM	1.03 ± 0.019	1.06 ± 0.021	0.997 ± 0.04	0.817 ± 0.046	0.922 ± 0.034
0.3704 µM	0.987 ± 0.028	1.089 ± 0.01	0.925 ± 0.063	0.651 ± 0.024	0.929 ± 0.03
1.111 µM	0.9394 ± 0.0081	1.08 ± 0.054	0.863 ± 0.05	0.498 ± 0.059	0.9218 ± 0.0043
3.333 µM	0.8 ± 0.035	1.08 ± 0.041	0.746 ± 0.028	0.417 ± 0.043	0.855 ± 0.022
10 µM	0.755 ± 0.051	1.04 ± 0.015	0.763 ± 0.029	0.402 ± 0.05	0.806 ± 0.036

C#Cc1cccc(Nc2ncnc3cc4c(cc23)OCCOCCOCCO4)c1 [Icotinib]
relative viability
Settings	[1]	[2]	[3]	[4]	[5]
0.00017 µM	1.07 ± 0.054	1.09 ± 0.021	1.06 ± 0.025	1.01 ± 0.062	0.972 ± 0.021
0.00051 µM	1.1 ± 0.07	1.1 ± 0.055	1.04 ± 0.016	1.03 ± 0.05	0.945 ± 0.032
0.00152 µM	1.1 ± 0.064	1.13 ± 0.027	1.03 ± 0.019	1.01 ± 0.015	0.958 ± 0.014
0.00457 µM	1.1 ± 0.067	1.124 ± 0.0066	1.07 ± 0.044	0.968 ± 0.048	0.937 ± 0.05
0.01372 µM	1.1 ± 0.058	1.15 ± 0.036	1.045 ± 0.0071	0.989 ± 0.031	0.936 ± 0.02
0.04115 µM	1.09 ± 0.034	1.08 ± 0.062	1.01 ± 0.043	0.979 ± 0.03	0.952 ± 0.033
0.1235 µM	1.1 ± 0.048	1.12 ± 0.029	1.01 ± 0.038	0.982 ± 0.013	0.952 ± 0.024
0.3704 µM	1.09 ± 0.054	1.15 ± 0.035	0.976 ± 0.022	0.98 ± 0.031	0.922 ± 0.024
1.111 µM	1.09 ± 0.064	1.1 ± 0.035	0.952 ± 0.015	0.966 ± 0.041	0.912 ± 0.027
3.333 µM	1.04 ± 0.062	1.15 ± 0.028	0.914 ± 0.031	0.892 ± 0.07	0.869 ± 0.036
10 µM	1.03 ± 0.092	1.14 ± 0.022	0.847 ± 0.033	0.855 ± 0.021	0.8 ± 0.038
